pIC50: −log10 of the molar value.
Tests used:
CYP3A4 = test: CYP-induction assay in HepaRG cells, QuantiGene Plex 2.0 (CYP3A4 induction); format: in vitro ADME, human; details: 48 hrs; for CYP3A4 (in parentheses: lowest concentration causing at least 2-fold induction): value in parentheses; for CYP3A4 (significant induction above 20% threshold): value outside parentheses
From the text: CYP-Induction Assay in HepaRG Cells with the QuantiGene Plex 2.0 Reagent System (Branched DNA-Assay) from Affymetrix (Thermo Scientific) (CYP3A4 Induction)
The QuantiGene Plex 2.0 assay combines branched DNA (bDNA) signal amplification and multi-analyte profiling beads (xMAP®) technologies to enable the detection and quantitation of multiple RNA targets simultaneously. The xMAP system combines a flow cytometer, fluorescent-dyed microspheres (beads), lasers and digital signal processing to allow multiplexing of up to 100 unique assays within a single sample.
Human HepaRG cells (Thermo Scientific) were thawed and seeded with a density of 0.72E6 cells/ml in a collagen precoated 96-well plate. After an adaption phase of 3 days in first Williams E medium (Gibco+thawing supplement, Thermo Scientific) the medium was changed to second Williams E medium (Gibco+tox supplement, Thermo Scientific). Daily treatment with test substances at 4 concentrations, started between day 3-10 of culturing, was performed with an incubation time of 48 hrs. After 48 hrs the cells were lysed with 100 μl/well (Lysis mixture, Affymetrix diluted 1:2 with Williams E medium, Gibco and addition of 5 μl proteinase K/ml of the mixture, Affymetrix). The QuantiGene Plex 2.0 assay utilizes fluorescent capture beads to trap specific RNA molecules. In order to hybridize and span contiguous sequences of the target RNA, the probe set containing 3 types of synthetic probes (Capture Extenders, Label Extenders, and Blockers) was incubated with samples and beads at 600 rpm at 54° C. for 16-20 h. Signal amplification was mediated by DNA amplification molecules that hybridize to the tails of the label extenders (incubation of the over-night hybridized beads with pre-amplifier and amplifier reagent for 1 h at 50° C. each, washing steps in between). Each amplification unit contains multiple hybridization sites for biotinylated label probes (incubation with label probe reagent for 1 h at 50° C., washing step in between) that bind Streptavidin-conjugated R-Phycoerythrin (SAPE, last incubation step for 30 min at room temp.). After the SAPE incubation, a last washing step with SAPE buffer was performed (120 μl left in wells). The resulting fluorescence signal associated with individual capture beads was detected on a Luminex 200 flow cytometer (parameters: volume 100 μl, timeout 45 sec., DD-gate 5,000-25,000, bead events 50). Signals were reported as median fluorescence intensity (MFI) and were proportional to the number of target RNA molecules present in the sample.
For analysis of results, calculation of mean values of 3 technical replicates as well as the standard deviations (% SD up to 30% acceptable) were carried out. The mean value of the blank was subtracted from the mean value of the sample. As the genes HPRT1 and TFRC are housekeeping genes, they are used to normalize sample mean values [(Sample Mean−Blank)/Housekeeper (Mean−Blank)=normalized value (HPRT1 or TFRC)]. Calculation of the fold-change was performed by dividing normalized sample values by the normalized mean values of the DMSO controls [(Sample Mean−Blank)/Housekeeper (Mean−Blank)=fc; (DMSO Mean−Blank)/Housekeeper (Mean−Blank)].
Experimental data of the compounds shown in Table 1 in the CYP3A4 assay are shown in Table 2 below and given in μM (significant induction above 20% threshold; in parentheses: lowest concentration causing at least 2-fold induction): […]

ACSS2 = ACSS2 (Homo sapiens (Human), UniProt Q9NR19); test: Cellular assay of 14C acetate incorporation into histones (IC50 ACSS2 cellular histone); format: cell-based; details: HCT-15 cells
Summary of the method: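 HCT-15 cells preincubated 1 h with compound (0.25% DMSO), then pulsed 3 h with 14C-acetate in full DMEM/10% FBS. Histones acid-extracted (0.2 M HCl, overnight, 4 °C) after Triton lysis in sodium butyrate buffer; incorporated 14C counted by scintillation (CPM) to give IC50.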

Chain of ACSS2 (Q9NR19 whole entry): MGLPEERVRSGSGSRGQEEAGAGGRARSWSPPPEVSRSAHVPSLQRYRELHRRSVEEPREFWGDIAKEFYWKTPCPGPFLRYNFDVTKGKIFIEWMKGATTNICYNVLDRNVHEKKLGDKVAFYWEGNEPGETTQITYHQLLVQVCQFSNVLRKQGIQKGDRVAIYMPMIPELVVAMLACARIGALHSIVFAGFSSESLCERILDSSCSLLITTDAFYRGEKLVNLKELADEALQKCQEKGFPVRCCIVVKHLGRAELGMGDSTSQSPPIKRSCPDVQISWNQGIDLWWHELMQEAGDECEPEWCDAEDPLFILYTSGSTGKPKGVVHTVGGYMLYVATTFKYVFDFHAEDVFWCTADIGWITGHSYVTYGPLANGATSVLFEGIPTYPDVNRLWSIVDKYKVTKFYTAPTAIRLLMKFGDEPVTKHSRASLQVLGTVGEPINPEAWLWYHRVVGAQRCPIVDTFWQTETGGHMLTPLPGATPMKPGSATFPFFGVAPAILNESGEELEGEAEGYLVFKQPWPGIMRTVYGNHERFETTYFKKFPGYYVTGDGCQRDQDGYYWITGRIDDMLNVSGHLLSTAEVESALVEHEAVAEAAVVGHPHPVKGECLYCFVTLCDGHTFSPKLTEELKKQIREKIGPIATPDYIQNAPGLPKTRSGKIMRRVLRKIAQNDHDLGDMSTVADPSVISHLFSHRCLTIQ

| Structure (SMILES) | CYP3A4 (in parentheses: lowest concentration causing at least 2-fold induction) (CYP3A4) [µM] | CYP3A4 (significant induction above 20% threshold) (CYP3A4) [µM] | pIC50 (ACSS2) |
| --- | --- | --- | --- |
| CCc1c(C(O)(c2ccccc2)c2ccccc2)nc2ccc(-c3nnn[nH]3)cn12 [Compound 4, [3-Ethyl-6-(1 H-tetrazol-5-yl)-imidazo[1,2-a]pyridin-2-yl]-diphenyl-methanol] | 50 | 2.2 | 5.00 to 7.00 |
| CCc1c(C(O)(c2ccccc2)c2ccccc2)nc2cc(OC)c(-c3nnn[nH]3)cn12 [Compound 2, [3-Ethyl-7-methoxy-6-(1H-tetrazol-5-yl)-imidazo[1,2-a]pyridin-2-yl]-diphenyl-methanol] | 5 | 2.3 | 8.00 to 9.00 |
| COc1nc2nc(C(O)(c3ccccc3)c3ccccc3)n(CCO)c2cc1-c1nnn[nH]1 [Compound 34, 2-[2-(hydroxy-diphenylmethyl)-5-methoxy-6-(1H-1,2,3,4-tetrazol-5-yl)-1H-imidazo[4,5-b]pyridin-1-yl]ethan-1-ol] | – | – | 5.00 to 7.00 |
| CCn1c(C(O)(c2cccs2)c2cccs2)nc2nc(OC)c(-c3nnn[nH]3)cc21 [Compound 38, [1-ethyl-5-methoxy-6-(1H-1,2,3,4-tetrazol-5-yl)-1H-imidazo[4,5-b]pyridin-2-yl]bis(thiophen-2-yl)methanol] | – | – | 5.00 to 7.00 |
| CCc1c(C(O)(c2ccccc2F)c2ccccc2F)nc2cc(OC)c(-c3nnn[nH]3)cn12 [Compound 6, [3-Ethyl-7-methoxy-6-(1H-tetrazol-5-yl)-imidazo[1,2-a]pyridin-2-yl]-bis-(2-fluoro-phenyl)-methanol] | – | – | 8.00 to 9.00 |
| CCc1c(C(O)(c2ccccc2)c2ccccc2)nn2cc(Cl)c(-c3nnn[nH]3)cc12 [Compound 21, [6-Chloro-3-ethyl-5-(1H-tetrazol-5-yl)-pyrazolo[1,5-a]pyridin-2-yl]-diphenyl-methanol] | 50 | 2.6 | 7.00 to 8.00 |
| CCn1c(C(O)(c2ccccc2F)c2ccccc2F)nc2nc(C)c(-c3nnn[nH]3)cc21 [Compound 59, [1-ethyl-5-methyl-6-(1H-1,2,3,4-tetrazol-5-yl)-1H-imidazo[4,5-b]pyridin-2-yl]bis(2-fluorophenyl)methanol] | 5 | 13.4 | 5.00 to 7.00 |
| CCn1c(C(O)(c2ccccc2)c2ccccc2)nc2ccc(C(=O)NC[C@@H](C)O)cc21 [Reference Compound, 3-Ethyl-2-[hydroxy(diphenyl)methyl]-N-[(2R)-2-hydroxypropyl]benzimidazole-5-carboxamide, reference compound] | 0.15 | 4.1 | 9.00 to 11.00 |
| CCc1c(C(O)(c2ccccc2)c2ccccc2)nn2cc(OC)c(-c3nnn[nH]3)cc12 [Compound 22, [3-Ethyl-6-methoxy-5-(1H-tetrazol-5-yl)-pyrazolo[1,5-a]pyridin-2-yl]-diphenyl-methanol] | – | – | 8.00 to 9.00 |
| CCn1c(C(O)(c2ccccc2)c2ccccn2)nc2nc(OC)c(-c3nnn[nH]3)cc21 (single isomer, unassigned) [Compound 40, [1-ethyl-5-methoxy-6-(1H-1,2,3,4-tetrazol-5-yl)-1H-imidazo[4,5-b]pyridin-2-yl](phenyl)(pyridin-2-yl)methanol] | 5 | 6.8 | 9.00 to 11.00 |
| CCn1c(C(O)(c2ccccc2)c2ccccc2)nc2nc(OC)c(-c3nnn[nH]3)cc21 [Compound 58, [1-ethyl-5-methoxy-6-(1H-1,2,3,4-tetrazol-5-yl)-1H-imidazo[4,5-b]pyridin-2-yl]diphenylmethanol] | 50 | 3.8 | 9.00 to 11.00 |
| CCn1c(C(O)(c2ccccc2)c2ccccc2)nc2ncc(-c3nnn[nH]3)cc21 [Compound 60, [1-ethyl-6-(1H-1,2,3,4-tetrazol-5-yl)-1H-imidazo[4,5-b]pyridin-2-yl]diphenylmethanol] | – | – | 5.00 to 7.00 |
| CCn1c(C(O)(c2ccccc2)c2ccccc2)nc2nc(C)c(-c3nnn[nH]3)cc21 [Compound 62, [1-ethyl-5-methyl-6-(1H-1,2,3,4-tetrazol-5-yl)-1H-imidazo[4,5-b]pyridin-2-yl]diphenylmethanol] | – | – | 5.00 to 7.00 |
| CCn1c(C(O)(c2ccccc2)c2ccccc2)nc2nc(Cl)c(-c3nnn[nH]3)cc21 [Compound 51, [5-chloro-1-ethyl-6-(1H-1,2,3,4-tetrazol-5-yl)-1H-imidazo[4,5-b]pyridin-2-yl]diphenylmethanol] | 50 | 3.1 | 7.00 to 8.00 |
| CCc1c(C(O)(c2ccccc2)c2ccccn2)nc2cc(OC)c(-c3nnn[nH]3)cn12 (single isomer, unassigned) [Compound 11, [3-Ethyl-7-methoxy-6-(1H-tetrazol-5-yl)-imidazo[1,2-a]pyridin-2-yl]-phenyl-pyridin-2-yl-methanol] | – | – | 7.00 to 8.00 |
| CCc1c(C(O)(c2ccccc2F)c2ccccc2F)nc2cc(Cl)c(-c3nnn[nH]3)cn12 [Compound 5, [7-Chloro-3-ethyl-6-(1H-tetrazol-5-yl)-imidazo[1,2-a]pyridin-2-yl]-bis-(2-fluoro-phenyl)-methanol] | – | – | 5.00 to 7.00 |
| CCc1c(C(O)(c2ccccc2)c2ccccc2)nc2cc(Cl)c(-c3nnn[nH]3)cn12 [Compound 9, [7-Chloro-3-ethyl-6-(1H-tetrazol-5-yl)-imidazo[1,2-a]pyridin-2-yl]-diphenyl-methanol] | – | – | 5.00 to 7.00 |
| CCn1c(C(O)(c2ccccc2F)c2ccccc2F)nc2nc(OC)c(-c3nnn[nH]3)cc21 [Compound 57, [1-ethyl-5-methoxy-6-(1H-1,2,3,4-tetrazol-5-yl)-1H-imidazo[4,5-b]pyridin-2-yl]bis(2-fluorophenyl)methanol] | – | – | 8.00 to 9.00 |
| CCc1c(C(O)(c2ccccc2F)c2ccccc2F)nn2cc(OC)c(-c3nnn[nH]3)cc12 [Compound 19, [3-Ethyl-6-methoxy-5-(1H-tetrazol-5-yl)-pyrazolo[1,5-a]pyridin-2-yl]-bis-(2-fluoro-phenyl)-methanol] | – | – | 7.00 to 8.00 |
| CCn1c(C(O)(c2ccccc2)c2ncccn2)nc2nc(OC)c(-c3nnn[nH]3)cc21 (racemic) [Compound 37, [1-ethyl-5-methoxy-6-(1H-1,2,3,4-tetrazol-5-yl)-1H-imidazo[4,5-b]pyridin-2-yl](phenyl)(pyrimidin-2-yl)methanol] | – | – | 8.00 to 9.00 |
| CCn1c(C(O)(c2ccccc2)c2cccs2)nc2nc(OC)c(-c3nnn[nH]3)cc21 (racemic) [Compound 35, [1-ethyl-5-methoxy-6-(1H-1,2,3,4-tetrazol-5-yl)-1H-imidazo[4,5-b]pyridin-2-yl](phenyl)(thiophen-2-yl)methanol] | – | – | 8.00 to 9.00 |
| CCn1c(C(O)(c2ccccc2)c2ccccn2)nc2nc(OC)c(-c3nnn[nH]3)cc21 (racemic) [Compound 50, [1-ethyl-5-methoxy-6-(1H-1,2,3,4-tetrazol-5-yl)-1H-imidazo[4,5-b]pyridin-2-yl](phenyl)(pyridin-2-yl)methanol] | – | – | 9.00 to 11.00 |
| CCc1c(C(O)(c2ccccc2)c2ccccc2)nc2cc(F)c(-c3nnn[nH]3)cn12 [Compound 3, [3-Ethyl-7-fluoro-6-(1H-tetrazol-5-yl)-imidazo[1,2-a]pyridin-2-yl]-diphenyl-methanol] | – | – | 5.00 to 7.00 |
